Assay results as given in article PMC8776730 (Nature Communications, 2022).

Key:
MIA PaCa-2 cells [1] = test: Transwell migration assay; type: cell-based; conditions: for migrated cells (Fig S20): MIA PaCa-2 cells
Protocol: (§1) Fig. 5 The BIVA effect with enhanced targeting to pancreatic tumor cell for boundaries imaging. a Illustration of BIVA effect: active targeting and assembly/aggregate induced retention (AIR) effect. b Chemical structure of FITC labeling. c 2D and 3D confocal images of M2 with active targeting property and M1 with BIVA effect on MIA PaCa-2 cells after incubation for 1 h. d The distribution of M1 on MIA PaCa-2 cell. e ThT staining of the lysed cell membrane of MIA PaCa-2. f, Illustration of migration inhibition after treated by BIVA probe. g The image of the migrated cells after treatment of PBS (blank), M2, M4, and M1. Scale bar: 100 μm. h The pie diagram of quantitative statistical calculation of the migrated cells (blue) in different groups. The blank control was set as 100% migrated cells.
In order to further understand the contribution of the active targeting and AIR effect during locating of the cells, the cell transwell experiment was used to quantitively evaluate interference of the cell migration based on M1, M2, and M4 (Fig. 5f). As expected, untreated cells were easy to migrate to the lower chamber, while the cells treated with active targeting molecule M2 and assembled molecule M4, the migration of cell were reduced. Under the same molar concentration, the M1 treatment group had the most inference on cell migration (Fig. 5g). […] Based on those results, we speculate M1 can be more enriched in the tumor site and form fibers through assembly to inhibit tumor cell migration compared to M2 and M4 which have no ability to target and adhere on the cell membrane.
Transwell migration assay occurred in chemotaxis chambers containing 24 wells. […] Bottom chambers contained DMEM medium containing 10% FBS. After 24 h of treatment with M1, M2, and M4 (150 μM), we fixed cells using 4% paraformaldehyde and stained with 0.25% crystal violet solution. The stained cells were counted using a microscope.
Supplementary Fig. 20∣ The quantitative results of the migrated cells after treatment of PBS (blank), M2, […] and
M1 (Fig 5g). The mean of results of fiveparallel experiments is shown and data were expressed as mean ± SD (n=5).
pM1 = 5.85E-06, pM2 = 5.94E-05, pM4 = 3.16 E-04, Statisticalanalysis: one-way ANOVA followed by post hoc Tukey’s
(1 picture or pasted object on this page, not shown here)

MIA PaCa-2 cells [2] = test: Cellular imaging (CLSM) of FITC-labelled molecules; type: cell-based; conditions: FITC-labelled molecules, MIA PaCa-2 cells, 1 h incubation, CLSM
Protocol: To further confirm this hypothesis, the M1 and M2 were equally labeled by FITC for cell imaging (Fig. 5b). To simulate the dynamic physiological condition, the cell culture medium was replaced every 15 min. After 1 h of incubation with M1 and M2 at the same molecule molar concentration, there occurred significant differences between the two molecules (Fig. 5c). […] The huge difference can be explained by the fact that the secondary assembly rate broke the balance between the targeted ligand and receptor, and thus tended to a stable assembly interaction. The retention efficiency depended on the assembly rate constant Ka. Meanwhile, the rapid dynamic assembly of BIVA probe in situ around the cell membrane, and contributed to the efficient formation and retention of nanofibers on the cell profile. When the incubation time was delayed up to 2 h, some components could be endocytosed into the cells, but most of them were found on the membranes (Supplementary Fig. 18). […] Then, the isolated cells were collected and lysed, the extracted cell membrane fragments were stained with ThT. […] In order to verify the influence of the addition of the targeting module of the probe molecules, we explored the imaging of R-M1 and M4 on cells.
as §1
MIA PaCa-2 cells were digested with trypsin, counted with cell counting plate, diluted to 1 × 10^4 with DMEM medium, and 1 mL to 1 cm diameter confocal microscope dish was taken. The cells were incubated in […] atmosphere for 24 h. The medium containing M1 and M2 (50 μM) was replaced and incubated with the cells for 2 h. The cells were washed with PBS for 3 times. CLSM (Zeiss 710) was used to image cells under 40 × objective, excitation = 488 nm, and emission >520 nm.
Supplementary Fig. 19 ∣ CLSM images of Miapaca-2 cells treated with different molecules or M1 under different conditions. […]

MIA PaCa-2 tumor = conditions: mouse, in vivo, 16 mg/kg
Protocol: In order to reduce systemic error and individual difference, we constructed the subcutaneous pancreatic cancer model in mice for quantitatively calculating of the metabolic data.
All the animal experiments were performed in accordance with the Guide for the Care and Use of Laboratory Animals approved by the Committee for Animal Research of the National Center for Nanoscience and Technology. The MIA PaCa-2 tumor-bearing mice were intravenously injected with ICG, M1 and M2 (16 mg/kg), respectively for in vivo fluorescence imaging with in vivo spectrum imaging system. Finally, mice were sacrificed to collect the major organs and tumors for ex vivo fluorescence imaging.

[3] = test system: orthotopic pancreatic tumor (MIA PaCa-2); test: Ex vivo organ biodistribution, orthotopic pancreatic tumor model; conditions: orthotopic tumor mice, i.v. 16 mg/kg, 12 h
Protocol: To evaluate the imaging property of BIVA probe, the orthotopic pancreatic tumor mice model was built. After intravenous injected M1 and M2 molecules with a dose of 16 mg/kg for 12 h, the mice were sacrificed. […] Then, all the important organs were dissected for ex vivo imaging. […] Upon the individual differences, we validated 6 mice under surgery to induce orthotopic tumor in pancreatic head. […] As known, the FAP-α was a membrane located protein, overexpressed on tumor associate fibroblast cell and pancreatic cell surface.

[4] = mouse, in vivo, iv, 16 mg/kg

Row | Substance | migrated cells (Fig S20) (MIA PaCa-2 cells [1]; averge of groups 1-3) | migrated cells (Fig S20) (MIA PaCa-2 cells [1]; group 1) | migrated cells (Fig S20) (MIA PaCa-2 cells [1]; group 2) | migrated cells (Fig S20) (MIA PaCa-2 cells [1]; group 3) | fluorescence signal on the cell membrane (MIA PaCa-2 cells [2]) | emigrate (migrated cells relative to blank) (MIA PaCa-2 cells [1]; MIA PaCa-2, 150 μM, 24 h, blank control = 1) | AUC 0-120 h in tumor tissue relative to M2 (MIA PaCa-2 tumor) | reduction of tumor fluorescence signal between 12 h and 120 h (MIA PaCa-2 tumor) | time to peak of tumor signal (MIA PaCa-2 tumor) | retention in tumor lasted (MIA PaCa-2 tumor; iv) | signal accumulation in tumor relative to M2 [3] | Average radiant efficiency, spleen ([3]; average of n = 3) | blood circulation half-life (t1/2) [4]
1 | mPEG-GPAKLVFFGCGRGD [M3, the non-labeling molecule of M1 (no IR783)] | 484.667 | 483 | 456 | 515 | – | – | – | – | – | – | – | – | –
2 | mPEG-GPAKLVFFGC(IR783)GRGD [M1] | 285.333 | 285 | 302 | 269 | higher fluorescence retention rate on the cell membrane | 0.3109 | 3.6 times | 27.6% | ~12 h | up to 96 h | twice | 203.333 P/sec | 1.83 ± 0.05 h
